Measurements from US20240225983A1, “COMPOSITIONS AND METHODS FOR PREVENTING OR REDUCING AUTOXIDATION OF FRAGRANCE AND FOOD OILS” (Firmenich SA, priority 2021, published 2024).
Counter-ions that a name gives are not always drawn.

How the values were obtained:
[1] = POV of corn oil treated with SOP (POV titration); settings: 0.4 mL in 8 mL corn oil, versus untreated corn oil (FIG. 3, 4)
Method: The POV of these solutions was measured periodically after standing on the laboratory benchtop at ambient light and temperature conditions.
Into a 15 mL glass vial was placed 0.201 gm of AKG and 2.011 gm of DET. The mixture was stirred with a small magnetic stirrer at room temperature over a weekend (approximately 3 days). However, not all of the AKG dissolved, so the vial was placed in a heating block at 90° C. for 15 minutes, and a clear solution was obtained. Upon cooling and standing for several days, no solid precipitated out. This material (0.4 mL) was diluted into 8 mL of corn oil to start the experiment. A sample was also made from just 0.4 mL of DET in 8 mL of corn oil. POV titration measurements were taken periodically of each sample versus untreated corn oil.
The performance of the SOPs were monitored by POV titration as described in Flavor & Fragrance Journal, M. Calandra and Y. Wang, 2020, 35:107-113 or as per the IFRA POV method (see www.ifraorg.org).

[2] = Aldehyde levels in salad dressing (DNPH derivatization, HPLC); settings: ~2.7% (w/w) in ranch dressing, room temperature, versus untreated (FIG. 9)
Method: Aldehyde levels in corn oil or other foods (such as salad dressing) were measured using the DNPH derivatization followed by HPLC analysis method (J. Ag. Food Chem. Deng, F-Y. et al, (2014) 62, 52, 12545-12552; Food Res. Internat., Cao, J. et al, (2014) 64, 901-907). Alternatively, or in addition to aldehyde measurements by HPLC, organoleptic evaluation to assess the level of rancidity in a sample was done.
Treatment of Salad Dressing with a 2-Oxoacid Salt • Sample: Ranch dressing (chili lime flavor) • 2-Oxoacid salt used: Phenyl pyruvic acid dimethyldecylammonium salt • Dosage: ˜2.7% (w/w) (0.4 g of the salt was added to 15 g of salad dressing). • Storage conditions: Room temperature, capped loosely, and mixed periodically.

Row | Molecule | POV of corn oil [1] | aldehyde concentration (hexanal or 2-nonenal) in salad dressing [2]
1 | CCOC(=O)C(O)C(O)C(=O)OCC (centres unmarked) [DET, diethyl tartrate] | some measurable activity toward reducing the POV | –
2 | Phenyl pyruvic acid dimethyldecylammonium salt | – | aldehyde levels were lower
